Read-outs that look alike come from different tables or passages of the source.
Experiment: Plasma levels of 9-deoxo-16,16-dimethyl-9-methylene-PGE2 by radioimmunoassay after insertion of a suppository
Format: in vivo, Rhesus monkeys (Macaca mulatta)
Settings: for concentration at 0.25 h / concentration at 1 h / concentration at 1.5 h / concentration at 2 h / concentration at 3 h / concentration at 4 h / concentration at 6 h / concentration at 24 h / concentration at 0.5 h: rhesus monkey, plasma, 30 mg, read-out: Drug Levels
From the text: A. Midtrimester pregnant female Rhesus monkeys (Macaca mulatta) are used. (The first day of menstrual bleeding is designated Day 1 of the menstrual cycle; the first day a female is placed with a male for breeding is designated Day 1 of pregnancy. Pregnancy is confirmed by abdominal palpation of the uterus.)
Blood samples are collected into heparinized syringes at specified times following insertion of a suppository in pregnant or non- pregnant monkeys. Plasma is extracted and assayed for 9-deoxo-16,16-dimethyl-9-methylene-PGE2 content by radioimmunoassay.
C. Six suppository lots are prepared (4), each containing 9- deoxo-16,16-dimethyl-9-methylene-PGE2 or its crystalline potassium salt (Examples 1 and 2). Two lots are made with Witepsol H15 alone as the suppository base, two with Witepsol HIS wax plus 2% colloidal silicon dioxide (CSD) and two with Witepsol H15 plus 2% CSD plus 10% triacetin. Suppositories are prepared using Witepsol H15 suppository wax. Free acid or potassium salt is dispersed in the hot wax using a homogenizer. Two percent colloidal silicon dioxide (CSD) is mixed in by further homogenization. In the third formulation, triacetin (10%) is added before the CSD and then homogenized for one minute. Suppositories are formed in 800 mg aluminum molds and are stored at 4°C until used.
D. The plasma levels of 9-deoxo-16,16-d1methy1-9-methy1ene-PGE2 in monkeys treated with 6 formulations containing either 9-deoxo-16,16-dimethyl-9-methylene-PGE2 free acid or potassium salt are shown in Tables 1-6. In general, higher blood levels are measured in pregnant Rhesus monkeys than in non-pregnant monkeys.

[1] = Monkey #1, 30 mg Free Acid in H15 Suppositories
[2] = Monkey #2, 30 mg Free Acid in H15 Suppositories
[3] = Monkey #3 (pregnant animal with uterine recording), 30 mg Free Acid in H15 Suppositories
[4] = Monkey #7, 30 mg Free Acid in H15 Plus 2% CSD Suppositories
[5] = Monkey #8, 30 mg Free Acid in H15 Plus 2% CSD Suppositories
[6] = Monkey #9 (pregnant animal with uterine recording), 30 mg Free Acid in H15 Plus 2% CSD Suppositories
[7] = Monkey #13, 30 mg Free Acid in H15 Plus 2% CSD + 10% Triacetin Suppositories
[8] = Monkey #14, 30 mg Free Acid in H15 Plus 2% CSD + 10% Triacetin Suppositories
[9] = Monkey #15 (pregnant animal with uterine recording), 30 mg Free Acid in H15 Plus 2% CSD + 10% Triacetin Suppositories

Compound: C=C1C[C@@H](O)[C@H](/C=C/[C@@H](O)C(C)(C)CCCC)[C@H]1C/C=C\CCCC(=O)O [Free Acid, 9-deoxo-16,16-dimethyl-9-methylene-PGE2]
- bioavailability (drug plasma levels and uterine activity), free acid versus potassium salt (Rhesus monkeys, 30 mg (acid equivalents) per dose in three suppository formulations): equally bioavailable
- concentration at 0.25 h [1]: 5.14 ng/mL
- concentration at 1 h (Monkey #1, 1.0 Hours, 30 mg Free Acid in H15 Suppositories): 4.39 ng/mL
- concentration at 1.5 h [1]: 7.89 ng/mL
- concentration at 2 h (Monkey #1, 2.0 Hours, 30 mg Free Acid in H15 Suppositories): 4.16 ng/mL
- concentration at 3 h (Monkey #1, 3.0 Hours, 30 mg Free Acid in H15 Suppositories): 0.23 ng/mL
- concentration at 4 h (Monkey #1, 4.0 Hours, 30 mg Free Acid in H15 Suppositories): 7.43 ng/mL
- concentration at 6 h (Monkey #1, 6.0 Hours, 30 mg Free Acid in H15 Suppositories): 10.1 ng/mL
- concentration at 24 h (Monkey #1, 24.0 Hours, 30 mg Free Acid in H15 Suppositories): 7.68 ng/mL
- concentration at 0.5 h (Monkey #1, .5 Hours, 30 mg Free Acid in H15 Suppositories): 1.69 ng/mL
- concentration at 0.25 h [2]: 0.61 ng/mL
- concentration at 1.5 h [2]: 3.35 ng/mL
- concentration at 2 h (Monkey #2, 2.0 Hours, 30 mg Free Acid in H15 Suppositories): 5.56 ng/mL
- concentration at 3 h (Monkey #2, 3.0 Hours, 30 mg Free Acid in H15 Suppositories): 13 ng/mL
- concentration at 4 h (Monkey #2, 4.0 Hours, 30 mg Free Acid in H15 Suppositories): 14.7 ng/mL
- concentration at 6 h (Monkey #2, 6.0 Hours, 30 mg Free Acid in H15 Suppositories): 17.3 ng/mL
- concentration at 24 h (Monkey #2, 24.0 Hours, 30 mg Free Acid in H15 Suppositories): 4.97 ng/mL
- concentration at 0.25 h [3]: 142 ng/mL
- concentration at 1 h (Monkey #3 (pregnant animal with uterine recording), 1.0 Hours, 30 mg Free Acid in H15 Suppositories): 93.9 ng/mL
- concentration at 1.5 h [3]: 66.8 ng/mL
- concentration at 2 h (Monkey #3 (pregnant animal with uterine recording), 2.0 Hours, 30 mg Free Acid in H15 Suppositories): 60.8 ng/mL
- concentration at 3 h (Monkey #3 (pregnant animal with uterine recording), 3.0 Hours, 30 mg Free Acid in H15 Suppositories): 56.1 ng/mL
- concentration at 4 h (Monkey #3 (pregnant animal with uterine recording), 4.0 Hours, 30 mg Free Acid in H15 Suppositories): 35.7 ng/mL
- concentration at 6 h (Monkey #3 (pregnant animal with uterine recording), 6.0 Hours, 30 mg Free Acid in H15 Suppositories): 13.7 ng/mL
- concentration at 24 h (Monkey #3 (pregnant animal with uterine recording), 24.0 Hours, 30 mg Free Acid in H15 Suppositories): 5.67 ng/mL
- concentration at 0.5 h (Monkey #3 (pregnant animal with uterine recording), .5 Hours, 30 mg Free Acid in H15 Suppositories): 63.6 ng/mL
- concentration at 0.25 h [4]: 39.2 ng/mL
- concentration at 0.5 h (Monkey #7, 0.5 Hours, 30 mg Free Acid in H15 Plus 2% CSD Suppositories): 44.5 ng/mL
- concentration at 1 h (Monkey #7, 1.0 Hours, 30 mg Free Acid in H15 Plus 2% CSD Suppositories): 63.9 ng/mL
- concentration at 1.5 h [4]: 42.2 ng/mL
- concentration at 2 h (Monkey #7, 2 Hours, 30 mg Free Acid in H15 Plus 2% CSD Suppositories): 37 ng/mL
- concentration at 3 h (Monkey #7, 3 Hours, 30 mg Free Acid in H15 Plus 2% CSD Suppositories): 16.9 ng/mL
- concentration at 4 h (Monkey #7, 4 Hours, 30 mg Free Acid in H15 Plus 2% CSD Suppositories): 13.2 ng/mL
- concentration at 6 h (Monkey #7, 6 Hours, 30 mg Free Acid in H15 Plus 2% CSD Suppositories): 6.5 ng/mL
- concentration at 24 h (Monkey #7, 24 Hours, 30 mg Free Acid in H15 Plus 2% CSD Suppositories): 4.01 ng/mL
- concentration at 0.25 h [5]: 51.4 ng/mL
- concentration at 0.5 h (Monkey #8, 0.5 Hours, 30 mg Free Acid in H15 Plus 2% CSD Suppositories): 134 ng/mL
- concentration at 1 h (Monkey #8, 1.0 Hours, 30 mg Free Acid in H15 Plus 2% CSD Suppositories): 88.2 ng/mL
- concentration at 1.5 h [5]: 61.1 ng/mL
- concentration at 2 h (Monkey #8, 2 Hours, 30 mg Free Acid in H15 Plus 2% CSD Suppositories): 78.3 ng/mL
- concentration at 3 h (Monkey #8, 3 Hours, 30 mg Free Acid in H15 Plus 2% CSD Suppositories): 29.1 ng/mL
- concentration at 4 h (Monkey #8, 4 Hours, 30 mg Free Acid in H15 Plus 2% CSD Suppositories): 12.4 ng/mL
- concentration at 6 h (Monkey #8, 6 Hours, 30 mg Free Acid in H15 Plus 2% CSD Suppositories): 2.49 ng/mL
- concentration at 24 h (Monkey #8, 24 Hours, 30 mg Free Acid in H15 Plus 2% CSD Suppositories): 15.7 ng/mL
- concentration at 0.25 h [6]: 60.7 ng/mL
- concentration at 0.5 h (Monkey #9 (pregnant animal with uterine recording), 0.5 Hours, 30 mg Free Acid in H15 Plus 2% CSD Suppositories): 52.2 ng/mL
- concentration at 1 h (Monkey #9 (pregnant animal with uterine recording), 1.0 Hours, 30 mg Free Acid in H15 Plus 2% CSD Suppositories): 63.1 ng/mL
- concentration at 1.5 h [6]: 62.8 ng/mL
- concentration at 2 h (Monkey #9 (pregnant animal with uterine recording), 2 Hours, 30 mg Free Acid in H15 Plus 2% CSD Suppositories): 62.9 ng/mL
- concentration at 3 h (Monkey #9 (pregnant animal with uterine recording), 3 Hours, 30 mg Free Acid in H15 Plus 2% CSD Suppositories): 40.2 ng/mL
- concentration at 4 h (Monkey #9 (pregnant animal with uterine recording), 4 Hours, 30 mg Free Acid in H15 Plus 2% CSD Suppositories): 57.8 ng/mL
- concentration at 6 h (Monkey #9 (pregnant animal with uterine recording), 6 Hours, 30 mg Free Acid in H15 Plus 2% CSD Suppositories): 32 ng/mL
- concentration at 24 h (Monkey #9 (pregnant animal with uterine recording), 24 Hours, 30 mg Free Acid in H15 Plus 2% CSD Suppositories): 21 ng/mL
- concentration at 0.25 h [7]: 12.6 ng/mL
- concentration at 0.5 h (Monkey #13, 0.5 Hours, 30 mg Free Acid in H15 Plus 2% CSD + 10% Triacetin Suppositories): 9.25 ng/mL
- concentration at 1 h (Monkey #13, 1 Hours, 30 mg Free Acid in H15 Plus 2% CSD + 10% Triacetin Suppositories): 2.8 ng/mL
- concentration at 1.5 h [7]: 3.09 ng/mL
- concentration at 2 h (Monkey #13, 2 Hours, 30 mg Free Acid in H15 Plus 2% CSD + 10% Triacetin Suppositories): 5.46 ng/mL
- concentration at 3 h (Monkey #13, 3 Hours, 30 mg Free Acid in H15 Plus 2% CSD + 10% Triacetin Suppositories): 15.1 ng/mL
- concentration at 4 h (Monkey #13, 4 Hours, 30 mg Free Acid in H15 Plus 2% CSD + 10% Triacetin Suppositories): 22.5 ng/mL
- concentration at 6 h (Monkey #13, 6 Hours, 30 mg Free Acid in H15 Plus 2% CSD + 10% Triacetin Suppositories): 23.8 ng/mL
- concentration at 24 h (Monkey #13, 24 Hours, 30 mg Free Acid in H15 Plus 2% CSD + 10% Triacetin Suppositories): 26 ng/mL
- concentration at 0.25 h [8]: 18.8 ng/mL
- concentration at 0.5 h (Monkey #14, 0.5 Hours, 30 mg Free Acid in H15 Plus 2% CSD + 10% Triacetin Suppositories): 36 ng/mL
- concentration at 1 h (Monkey #14, 1 Hours, 30 mg Free Acid in H15 Plus 2% CSD + 10% Triacetin Suppositories): 25.1 ng/mL
- concentration at 1.5 h [8]: 32 ng/mL
- concentration at 2 h (Monkey #14, 2 Hours, 30 mg Free Acid in H15 Plus 2% CSD + 10% Triacetin Suppositories): 28.7 ng/mL
- concentration at 3 h (Monkey #14, 3 Hours, 30 mg Free Acid in H15 Plus 2% CSD + 10% Triacetin Suppositories): 20.2 ng/mL
- concentration at 4 h (Monkey #14, 4 Hours, 30 mg Free Acid in H15 Plus 2% CSD + 10% Triacetin Suppositories): 16.6 ng/mL
- concentration at 6 h (Monkey #14, 6 Hours, 30 mg Free Acid in H15 Plus 2% CSD + 10% Triacetin Suppositories): 16.2 ng/mL
- concentration at 24 h (Monkey #14, 24 Hours, 30 mg Free Acid in H15 Plus 2% CSD + 10% Triacetin Suppositories): 12.9 ng/mL
- concentration at 0.25 h [9]: 119 ng/mL
- concentration at 0.5 h (Monkey #15 (pregnant animal with uterine recording), 0.5 Hours, 30 mg Free Acid in H15 Plus 2% CSD + 10% Triacetin Suppositories): 154 ng/mL
- concentration at 1 h (Monkey #15 (pregnant animal with uterine recording), 1 Hours, 30 mg Free Acid in H15 Plus 2% CSD + 10% Triacetin Suppositories): 154 ng/mL
- concentration at 1.5 h [9]: 26.8 ng/mL
- concentration at 2 h (Monkey #15 (pregnant animal with uterine recording), 2 Hours, 30 mg Free Acid in H15 Plus 2% CSD + 10% Triacetin Suppositories): 44.8 ng/mL
- concentration at 3 h (Monkey #15 (pregnant animal with uterine recording), 3 Hours, 30 mg Free Acid in H15 Plus 2% CSD + 10% Triacetin Suppositories): 65.9 ng/mL
- concentration at 4 h (Monkey #15 (pregnant animal with uterine recording), 4 Hours, 30 mg Free Acid in H15 Plus 2% CSD + 10% Triacetin Suppositories): 22.1 ng/mL
- concentration at 6 h (Monkey #15 (pregnant animal with uterine recording), 6 Hours, 30 mg Free Acid in H15 Plus 2% CSD + 10% Triacetin Suppositories): 13 ng/mL
- concentration at 24 h (Monkey #15 (pregnant animal with uterine recording), 24 Hours, 30 mg Free Acid in H15 Plus 2% CSD + 10% Triacetin Suppositories): 2.76 ng/mL

From EP0097439A2, “A crystalline prostaglandin salt” (THE UPJOHN COMPANY, priority 1982, dated 1984)
